Source: PubChem BioAssay (NCI)
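Exposure lasted 48 hours, with cells grown in 96-well plates and compounds tested at five concentrations. TGI is the concentration that stops growth completely.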

Tests used:
Test in all cases: DTP human tumour cell line panel, 48 h
786-0 renal = test system: 786-0 renal
A498 renal = test system: A498 renal
A549 NSCLC = test system: A549 NSCLC
ACHN renal = test system: ACHN renal
CAKI-1 renal = test system: CAKI-1 renal
CCRF-CEM leukemia = test system: CCRF-CEM leukemia
COLO 205 colon = test system: COLO 205 colon
DLD-1 colon = test system: DLD-1 colon
DMS 114 small cell lung = test system: DMS 114 small cell lung
DMS 273 small cell lung = test system: DMS 273 small cell lung
EKVX NSCLC = test system: EKVX NSCLC
HCC-2998 colon = test system: HCC-2998 colon
HCT-116 colon = test system: HCT-116 colon
HCT-15 colon = test system: HCT-15 colon
HL-60(TB) leukemia = test system: HL-60(TB) leukemia
HOP-18 NSCLC = test system: HOP-18 NSCLC
HOP-62 NSCLC = test system: HOP-62 NSCLC
HOP-92 NSCLC = test system: HOP-92 NSCLC
HT29 colon = test system: HT29 colon
IGROV1 ovarian = test system: IGROV1 ovarian
KM12 colon = test system: KM12 colon
KM20L2 colon = test system: KM20L2 colon
LOX IMVI melanoma = test system: LOX IMVI melanoma
LXFL 529 NSCLC = test system: LXFL 529 NSCLC
M14 melanoma = test system: M14 melanoma
M19-MEL melanoma = test system: M19-MEL melanoma
MALME-3M melanoma = test system: MALME-3M melanoma
MOLT-4 leukemia = test system: MOLT-4 leukemia
NCI-H226 lung = test system: NCI-H226 lung
NCI-H23 lung = test system: NCI-H23 lung
NCI-H460 lung = test system: NCI-H460 lung
OVCAR-3 ovarian = test system: OVCAR-3 ovarian
OVCAR-4 ovarian = test system: OVCAR-4 ovarian
OVCAR-5 ovarian = test system: OVCAR-5 ovarian
OVCAR-8 ovarian = test system: OVCAR-8 ovarian
RPMI-8226 leukemia = test system: RPMI-8226 leukemia
RXF 393 renal = test system: RXF 393 renal
RXF-631 renal = test system: RXF-631 renal
SF-268 CNS = test system: SF-268 CNS
SF-295 CNS = test system: SF-295 CNS
SF-539 CNS = test system: SF-539 CNS
SK-MEL-2 melanoma = test system: SK-MEL-2 melanoma
SK-MEL-28 melanoma = test system: SK-MEL-28 melanoma
SK-MEL-5 melanoma = test system: SK-MEL-5 melanoma
SK-OV-3 ovarian = test system: SK-OV-3 ovarian
SN12C renal = test system: SN12C renal
SNB-19 CNS = test system: SNB-19 CNS
SNB-75 CNS = test system: SNB-75 CNS
SNB-78 CNS = test system: SNB-78 CNS
SR leukemia = test system: SR leukemia
SW-620 colon = test system: SW-620 colon
TK-10 renal = test system: TK-10 renal
U251 CNS = test system: U251 CNS
UACC-257 melanoma = test system: UACC-257 melanoma
UACC-62 melanoma = test system: UACC-62 melanoma
UO-31 renal = test system: UO-31 renal
XF 498 CNS = test system: XF 498 CNS
BT-549 breast = test system: BT-549 breast
DU-145 prostate = test system: DU-145 prostate
HS 578T breast = test system: HS 578T breast
K-562 leukemia = test system: K-562 leukemia
MCF7 breast = test system: MCF7 breast
MDA-MB-231 breast = test system: MDA-MB-231 breast
MDA-MB-435 = test system: MDA-MB-435
MDA-N = test system: MDA-N
NCI-H522 lung = test system: NCI-H522 lung
NCI/ADR-RES ovarian = test system: NCI/ADR-RES ovarian
PC-3 prostate = test system: PC-3 prostate
T-47D breast = test system: T-47D breast

For `COc1cc2c(c(OC)c1OC)-c1ccc(SC)c(=O)cc1C(CC(=O)Oc1ccc([N+](=O)[O-])cc1)C2` (stereo unspecified), the TGI (786-0 renal) was greater than 37.2 µM, the TGI (A498 renal) was 0.571 µM and the TGI (A549 NSCLC) was greater than 100 µM. The TGI (ACHN renal) was greater than 40.5 µM, the TGI (CAKI-1 renal) was greater than 62.8 µM and the TGI (CCRF-CEM leukemia) was greater than 100 µM. The TGI (COLO 205 colon) was 1.09 µM, the TGI (DLD-1 colon) was 8.69 µM and the TGI (DMS 114 small cell lung) was 0.677 µM. For the same compound, the TGI (DMS 273 small cell lung) was greater than 36.9 µM, the TGI (EKVX NSCLC) was greater than 100 µM and the TGI (HCC-2998 colon) was 2.13 µM. The TGI (HCT-116 colon) was 1.82 µM, the TGI (HCT-15 colon) was greater than 100 µM and the TGI (HL-60(TB) leukemia) was greater than 38.2 µM. It also gave a TGI (HOP-18 NSCLC) greater than 48.9 µM, a TGI (HOP-62 NSCLC) greater than 100 µM and a TGI (HOP-92 NSCLC) greater than 48.3 µM. The TGI (HT29 colon) was 0.099 µM, the TGI (IGROV1 ovarian) was greater than 49.2 µM and the TGI (KM12 colon) was 0.489 µM. The TGI (KM20L2 colon) was 0.465 µM, the TGI (LOX IMVI melanoma) was 20.2 µM and the TGI (LXFL 529 NSCLC) was greater than 34.6 µM. The TGI (M14 melanoma) was 1.53 µM, the TGI (M19-MEL melanoma) was 36.9 µM and the TGI (MALME-3M melanoma) was greater than 65.2 µM. For the same compound, the TGI (MOLT-4 leukemia) was greater than 100 µM, the TGI (NCI-H226 lung) was 0.865 µM and the TGI (NCI-H23 lung) was 1.88 µM. It also gave a TGI (NCI-H460 lung) of 5.78 µM, a TGI (OVCAR-3 ovarian) of 0.905 µM and a TGI (OVCAR-4 ovarian) greater than 43.6 µM. For the same compound, the TGI (OVCAR-5 ovarian) was greater than 100 µM, the TGI (OVCAR-8 ovarian) was 5.08 µM and the TGI (RPMI-8226 leukemia) was greater than 63 µM. It also gave a TGI (RXF 393 renal) of 0.65 µM, a TGI (RXF-631 renal) of 0.052 µM and a TGI (SF-268 CNS) of 31.4 µM. It also gave a TGI (SF-295 CNS) greater than 45.6 µM, a TGI (SF-539 CNS) of 0.636 µM and a TGI (SK-MEL-2 melanoma) greater than 48.8 µM. It also gave a TGI (SK-MEL-28 melanoma) greater than 56.6 µM, a TGI (SK-MEL-5 melanoma) of 13.9 µM and a TGI (SK-OV-3 ovarian) greater than 100 µM. For the same compound, the TGI (SN12C renal) was greater than 43.1 µM, the TGI (SNB-19 CNS) was greater than 31.8 µM and the TGI (SNB-75 CNS) was 0.68 µM. The TGI (SNB-78 CNS) was 41 µM, the TGI (SR leukemia) was greater than 38 µM and the TGI (SW-620 colon) was greater than 48.7 µM. It also gave a TGI (TK-10 renal) greater than 51.3 µM, a TGI (U251 CNS) of 1.43 µM and a TGI (UACC-257 melanoma) greater than 49.1 µM. The TGI (UACC-62 melanoma) was 11.4 µM, the TGI (UO-31 renal) was greater than 100 µM and the TGI (XF 498 CNS) was 4.73 µM.
Work on `CCCN(CCCCC(NC(C)=O)C(=O)NCc1ccccc1)C(=O)N(CCCl)N=O` (stereo unspecified) yielded a TGI (786-0 renal) greater than 89.4 µM, a TGI (A498 renal) greater than 100 µM and a TGI (A549 NSCLC) greater than 100 µM. The TGI (ACHN renal) was greater than 100 µM, the TGI (BT-549 breast) was greater than 100 µM and the TGI (CAKI-1 renal) was greater than 100 µM. It also gave a TGI (CCRF-CEM leukemia) greater than 100 µM, a TGI (COLO 205 colon) greater than 100 µM and a TGI (DLD-1 colon) greater than 100 µM. For the same compound, the TGI (DMS 114 small cell lung) was greater than 100 µM, the TGI (DMS 273 small cell lung) was greater than 100 µM and the TGI (DU-145 prostate) was greater than 100 µM. The TGI (EKVX NSCLC) was greater than 100 µM, the TGI (HCC-2998 colon) was greater than 100 µM and the TGI (HCT-116 colon) was greater than 100 µM. It also gave a TGI (HCT-15 colon) greater than 100 µM, a TGI (HL-60(TB) leukemia) greater than 86 µM and a TGI (HOP-18 NSCLC) greater than 100 µM. It also gave a TGI (HOP-62 NSCLC) of 78.3 µM, a TGI (HOP-92 NSCLC) greater than 100 µM and a TGI (HS 578T breast) greater than 100 µM. For the same compound, the TGI (HT29 colon) was greater than 100 µM, the TGI (IGROV1 ovarian) was greater than 100 µM and the TGI (K-562 leukemia) was greater than 100 µM. For the same compound, the TGI (KM12 colon) was greater than 100 µM, the TGI (KM20L2 colon) was greater than 100 µM and the TGI (LOX IMVI melanoma) was greater than 100 µM. For the same compound, the TGI (LXFL 529 NSCLC) was greater than 100 µM, the TGI (M14 melanoma) was greater than 100 µM and the TGI (M19-MEL melanoma) was greater than 100 µM. It also gave a TGI (MALME-3M melanoma) greater than 100 µM, a TGI (MCF7 breast) greater than 100 µM and a TGI (MDA-MB-231 breast) greater than 100 µM. It also gave a TGI (MDA-MB-435) greater than 100 µM, a TGI (MDA-N) greater than 100 µM and a TGI (MOLT-4 leukemia) greater than 100 µM. For the same compound, the TGI (NCI-H226 lung) was greater than 100 µM, the TGI (NCI-H23 lung) was 98.5 µM and the TGI (NCI-H460 lung) was greater than 56.2 µM. The TGI (NCI-H522 lung) was greater than 100 µM, the TGI (NCI/ADR-RES ovarian) was greater than 100 µM and the TGI (OVCAR-3 ovarian) was greater than 100 µM. It also gave a TGI (OVCAR-4 ovarian) greater than 100 µM, a TGI (OVCAR-5 ovarian) greater than 100 µM and a TGI (OVCAR-8 ovarian) greater than 100 µM. The TGI (PC-3 prostate) was greater than 100 µM, the TGI (RPMI-8226 leukemia) was greater than 100 µM and the TGI (RXF 393 renal) was 98.9 µM. The TGI (RXF-631 renal) was greater than 100 µM, the TGI (SF-268 CNS) was greater than 100 µM and the TGI (SF-295 CNS) was greater than 100 µM. It also gave a TGI (SF-539 CNS) of 41.1 µM, a TGI (SK-MEL-2 melanoma) greater than 100 µM and a TGI (SK-MEL-28 melanoma) greater than 100 µM. The TGI (SK-MEL-5 melanoma) was greater than 100 µM, the TGI (SK-OV-3 ovarian) was greater than 100 µM and the TGI (SN12C renal) was greater than 100 µM. For the same compound, the TGI (SNB-19 CNS) was greater than 100 µM, the TGI (SNB-75 CNS) was 90.8 µM and the TGI (SNB-78 CNS) was greater than 100 µM. The TGI (SR leukemia) was greater than 100 µM, the TGI (SW-620 colon) was greater than 100 µM and the TGI (T-47D breast) was greater than 100 µM. It also gave a TGI (TK-10 renal) greater than 100 µM, a TGI (U251 CNS) greater than 74.9 µM and a TGI (UACC-257 melanoma) greater than 100 µM. For the same compound, the TGI (UACC-62 melanoma) was greater than 100 µM, the TGI (UO-31 renal) was greater than 100 µM and the TGI (XF 498 CNS) was greater than 100 µM.
